The record followed here is patent US5908824A, “Nasally administrable compositions containing physiologically active peptides” (Dott Research Laboratory, priority 1995, dated 1999).

For the test, the system named is blood sugar. Briefly: Test Example 1: average fall of the blood sugar in rabbits after insulin. Format: in vivo, New Zealand rabbits. The following applies: subcutaneous 2 IU/rabbit, level at 0 min = 100%. The procedure: The composition contained insulin at […] (5 insulin units (IU)/rabbit).
The composition was nasally administered to six male New Zealand rabbits at one time, and the average fall of the blood sugar was measured at 0, 15, 30, 60, 120 and 180 min after administration.
For comparison, 2 IU/rabbit of insulin was subcutaneously injected to six male New Zealand rabbits and the average fall of the blood sugar was measured at 0, 60, 120, 240, and 360 min after administration.
The results are shown in Table 1, in which the average fall of the blood sugar is indicated in percentage assuming the blood sugar level at 0 min to be 100%.

Turning to insulin [Control], the “Blood sugar level (% of 0-min level)” value by setting is: (0 min after administration) 100%; (60 min after administration) 57%; (120 min after administration) 56%; (240 min after administration) 84%; (360 min after administration) 94%.
